Test [1] deals with T1, human Nav1.7 channels stably expressed in HEK 293 cells (Homo sapiens, UniProt Q15858).
T1 construct: expressed in transfected cells
Kind of test: PatchXpress 7000 automated patch-clamp, sodium current. The class given is cell-based. Particulars: 22° C., read-out: potency for the Nav 1.7 sodium ion channel (as measured by PatchXpress). The text has this: (§1) To measure state and use-dependent sodium channel inhibition, test compounds were further characterized in an automated PatchXpress® assay (Molecular Devices). Two voltage-clamp protocols were used. 1) Use-dependent protocol: Cells were held at a membrane potential 20 mV negative to the potential at which ˜50% of the channels are inactivated (V0.5 inact). A train of 30 ms depolarizations to −20 mV was applied to the cells expressing Nav1.7 at a frequency of 10 Hz. […] Data was collected in the absence and presence of drug, and after drug washout. 2) A double-pulse protocol was used to measure inactivated state block. Cells were held at a potential 20 mV negative to V0.5 inact. A 8000 ms pre-pulse 7 mV positive to V0.5 inact was given followed by a hyperpolarizing 2 ms pulse to −120 mV and a 20 ms test pulse to −20 mV. Protocol was applied to cells in the absence, presence of compound and after washout. The temperature of PatchXpress instruments was maintained at 22° C. The following recording solutions were used. Internal solution (mM): 30 CsCl, 5 HEPES, 10 EGTA, 120 CsF, 5 NaF, 2MgCl2, pH=7.3 with CsOH, 324 mosmo. External solution (mM): 120 NMDG, 40 NaCl, 1 KCl, 0.5 MgCl2, 5 HEPES, 2.7 CaCl2, pH=7.5 with NMDG-OH.
(§2) For all electrophysiology experiments, offline analysis was used to correct for current rundown and to determine percent inhibition as a function of drug concentration. IC50 values were determined by fitting to the Hill equation.
A general note: Patch clamp records ionic current or voltage across a cell membrane.

Test [2] concerns the target T2, human Nav1.5 channels stably expressed in HEK 293 cells (Homo sapiens, UniProt Q14524).
T2 construct: expressed in transfected cells
The test is described as above. It counts as cell-based. The conditions noted are these: selectivity over Nav1.5.
From the text: as §1, §2

The values that follow come from US9273040B2 (Merck Sharp & Dohme Corp., priority 2011, dated 2016).

Structures are written as SMILES.

T2 sequence (Q14524 whole entry): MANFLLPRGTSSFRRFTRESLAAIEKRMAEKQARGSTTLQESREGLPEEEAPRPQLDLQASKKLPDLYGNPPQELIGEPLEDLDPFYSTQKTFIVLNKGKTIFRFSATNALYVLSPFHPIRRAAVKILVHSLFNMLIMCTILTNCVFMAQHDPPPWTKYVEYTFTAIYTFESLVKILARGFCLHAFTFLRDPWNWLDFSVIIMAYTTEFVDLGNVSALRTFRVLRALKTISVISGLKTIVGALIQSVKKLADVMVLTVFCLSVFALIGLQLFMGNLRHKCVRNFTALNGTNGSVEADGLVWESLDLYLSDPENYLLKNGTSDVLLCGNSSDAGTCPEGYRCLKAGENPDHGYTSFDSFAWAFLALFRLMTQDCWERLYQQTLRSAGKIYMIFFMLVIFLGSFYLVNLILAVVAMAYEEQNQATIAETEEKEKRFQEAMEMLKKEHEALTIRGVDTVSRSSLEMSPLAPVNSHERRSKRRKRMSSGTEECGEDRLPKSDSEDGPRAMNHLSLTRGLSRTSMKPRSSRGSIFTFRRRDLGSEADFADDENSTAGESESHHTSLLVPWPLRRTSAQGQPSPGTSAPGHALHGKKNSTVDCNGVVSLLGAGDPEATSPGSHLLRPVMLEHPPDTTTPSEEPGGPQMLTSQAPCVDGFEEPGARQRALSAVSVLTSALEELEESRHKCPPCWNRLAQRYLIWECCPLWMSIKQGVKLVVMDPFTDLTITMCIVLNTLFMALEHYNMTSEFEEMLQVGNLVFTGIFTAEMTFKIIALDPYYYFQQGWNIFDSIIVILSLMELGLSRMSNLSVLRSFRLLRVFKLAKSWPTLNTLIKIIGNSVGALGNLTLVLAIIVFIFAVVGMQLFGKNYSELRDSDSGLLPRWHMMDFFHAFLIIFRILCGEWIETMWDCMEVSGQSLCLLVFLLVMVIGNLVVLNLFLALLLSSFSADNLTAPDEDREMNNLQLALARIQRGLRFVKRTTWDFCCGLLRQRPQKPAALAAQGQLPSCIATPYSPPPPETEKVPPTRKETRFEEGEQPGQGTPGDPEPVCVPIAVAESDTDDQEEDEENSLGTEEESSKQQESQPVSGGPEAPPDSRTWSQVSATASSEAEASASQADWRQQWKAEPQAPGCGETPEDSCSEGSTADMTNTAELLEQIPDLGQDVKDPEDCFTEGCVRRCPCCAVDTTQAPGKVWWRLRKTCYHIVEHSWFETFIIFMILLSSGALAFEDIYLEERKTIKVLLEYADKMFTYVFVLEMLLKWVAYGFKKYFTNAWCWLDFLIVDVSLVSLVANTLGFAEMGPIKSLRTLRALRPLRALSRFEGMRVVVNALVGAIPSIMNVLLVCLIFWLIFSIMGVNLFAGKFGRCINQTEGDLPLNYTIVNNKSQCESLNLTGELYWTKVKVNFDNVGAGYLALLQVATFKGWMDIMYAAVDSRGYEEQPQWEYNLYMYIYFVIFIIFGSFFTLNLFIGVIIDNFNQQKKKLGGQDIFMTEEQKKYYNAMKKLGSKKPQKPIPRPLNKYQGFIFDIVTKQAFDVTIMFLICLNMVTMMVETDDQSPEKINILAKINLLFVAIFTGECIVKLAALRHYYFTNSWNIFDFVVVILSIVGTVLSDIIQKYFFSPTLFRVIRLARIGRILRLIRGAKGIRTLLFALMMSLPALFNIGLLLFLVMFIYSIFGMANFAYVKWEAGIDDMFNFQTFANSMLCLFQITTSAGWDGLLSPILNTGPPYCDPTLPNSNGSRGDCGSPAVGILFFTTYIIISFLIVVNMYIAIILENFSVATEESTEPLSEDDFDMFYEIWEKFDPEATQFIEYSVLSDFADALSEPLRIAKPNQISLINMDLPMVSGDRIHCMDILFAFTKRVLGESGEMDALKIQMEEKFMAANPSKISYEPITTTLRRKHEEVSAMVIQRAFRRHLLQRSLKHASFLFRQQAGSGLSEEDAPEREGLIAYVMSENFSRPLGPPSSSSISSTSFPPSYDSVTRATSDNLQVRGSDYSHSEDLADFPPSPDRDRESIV
T1 sequence (Q15858 whole entry): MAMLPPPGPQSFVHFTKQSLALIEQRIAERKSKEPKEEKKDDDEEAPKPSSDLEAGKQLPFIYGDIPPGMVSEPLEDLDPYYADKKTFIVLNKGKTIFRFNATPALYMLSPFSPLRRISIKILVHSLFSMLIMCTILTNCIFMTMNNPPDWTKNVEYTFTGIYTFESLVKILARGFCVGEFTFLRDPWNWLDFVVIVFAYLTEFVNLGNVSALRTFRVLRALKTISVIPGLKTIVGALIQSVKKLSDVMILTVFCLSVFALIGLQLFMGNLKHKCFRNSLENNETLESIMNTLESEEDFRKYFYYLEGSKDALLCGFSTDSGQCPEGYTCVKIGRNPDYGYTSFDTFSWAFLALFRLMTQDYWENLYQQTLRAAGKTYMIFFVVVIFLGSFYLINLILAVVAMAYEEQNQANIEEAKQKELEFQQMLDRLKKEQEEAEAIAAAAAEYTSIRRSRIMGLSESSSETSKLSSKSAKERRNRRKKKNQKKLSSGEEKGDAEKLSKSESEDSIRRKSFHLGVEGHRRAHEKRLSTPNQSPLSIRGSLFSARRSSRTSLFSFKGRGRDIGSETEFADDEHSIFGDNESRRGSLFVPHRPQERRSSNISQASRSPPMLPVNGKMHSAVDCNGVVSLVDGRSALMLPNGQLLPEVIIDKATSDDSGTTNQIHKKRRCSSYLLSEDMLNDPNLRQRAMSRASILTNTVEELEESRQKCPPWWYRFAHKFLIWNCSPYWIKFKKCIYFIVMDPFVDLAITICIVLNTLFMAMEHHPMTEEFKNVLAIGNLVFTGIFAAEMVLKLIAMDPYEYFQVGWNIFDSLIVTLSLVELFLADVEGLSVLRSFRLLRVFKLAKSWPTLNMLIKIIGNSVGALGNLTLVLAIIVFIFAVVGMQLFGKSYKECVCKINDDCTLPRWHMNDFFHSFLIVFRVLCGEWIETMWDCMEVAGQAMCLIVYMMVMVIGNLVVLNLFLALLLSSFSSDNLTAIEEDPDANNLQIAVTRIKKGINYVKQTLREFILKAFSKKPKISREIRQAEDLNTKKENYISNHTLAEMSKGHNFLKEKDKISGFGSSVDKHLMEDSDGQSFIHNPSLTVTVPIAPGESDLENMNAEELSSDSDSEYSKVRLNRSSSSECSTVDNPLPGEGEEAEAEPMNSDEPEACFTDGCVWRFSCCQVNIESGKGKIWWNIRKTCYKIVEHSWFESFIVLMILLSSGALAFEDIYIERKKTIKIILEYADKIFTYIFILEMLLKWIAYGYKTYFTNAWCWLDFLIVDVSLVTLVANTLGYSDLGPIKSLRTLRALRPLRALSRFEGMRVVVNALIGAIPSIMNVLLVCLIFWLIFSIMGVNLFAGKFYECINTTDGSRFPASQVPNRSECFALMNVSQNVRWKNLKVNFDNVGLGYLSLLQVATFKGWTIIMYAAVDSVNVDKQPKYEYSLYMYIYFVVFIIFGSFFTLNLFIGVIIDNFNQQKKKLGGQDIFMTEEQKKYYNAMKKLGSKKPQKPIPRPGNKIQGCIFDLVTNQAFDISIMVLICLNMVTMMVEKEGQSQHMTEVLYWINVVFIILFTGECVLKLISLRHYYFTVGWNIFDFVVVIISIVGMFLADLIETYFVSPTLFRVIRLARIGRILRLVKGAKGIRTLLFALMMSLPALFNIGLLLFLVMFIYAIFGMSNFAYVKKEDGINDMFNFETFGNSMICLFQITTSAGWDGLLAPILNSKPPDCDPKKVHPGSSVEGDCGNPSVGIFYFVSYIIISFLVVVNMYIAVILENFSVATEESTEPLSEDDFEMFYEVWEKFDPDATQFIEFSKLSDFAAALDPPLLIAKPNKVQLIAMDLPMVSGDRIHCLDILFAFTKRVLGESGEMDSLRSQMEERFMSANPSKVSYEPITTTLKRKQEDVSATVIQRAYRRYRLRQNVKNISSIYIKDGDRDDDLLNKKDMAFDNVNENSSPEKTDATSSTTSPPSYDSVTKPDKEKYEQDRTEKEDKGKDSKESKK

In the case of `C[C@H](c1cccc(-c2ccn(C)n2)c1)n1c(=O)oc2cc(S(=O)(=O)Nc3nccs3)c(F)cc21` [Compound 43-25, 5-fluoro-3-{(1R)-1-[3-(1-methyl-1H-pyrazol-3-yl)phenyl]ethyl}-2-oxo-N-1,3-thiazol-2-yl-2,3-dihydro-1,3-benzoxazole-6-sulfonamide], the IC50 in test [1] stood at 306 nM. In addition, the “ratio of Nav 1.5:Nav 1.7 potency, determined by PatchXpress measurement” value (“ratio of Nav 1.5:Nav 1.7 potency” below) in test [2] amounted to 86.

As for `NC1CCc2cccc(Cn3c(=O)oc4cc(S(=O)(=O)Nc5ncns5)c(F)cc43)c2C1` (racemic) [Compound 20-4, 3-((7-amino-5,6,7,8-tetrahydronaphthalen-1-yl)methyl)-5-fluoro-2-oxo-N-(1,2,4-thiadiazol-5-yl)-2,3-dihydrobenzo[d]oxazole-6-sulfonamide], in test [1], the IC50 came to 179 nM. Also, the “ratio of Nav 1.5:Nav 1.7 potency” value in test [2] turned out to be 167.

Consider `C[C@H](c1ccccc1C#C[C@H]1CCCN1)n1c(=O)oc2cc(S(=O)(=O)Nc3ncns3)c(F)cc21` [Compound 17-21, 5-fluoro-2-oxo-3-[(1R)-1-{2-[(2R)-pyrrolidin-2-ylethynyl]phenyl}ethyl]-N-1,2,4-thiadiazol-5-yl-2,3-dihydro-1,3-benzoxazole-6-sulfonamide], for which the IC50 in test [1] came out at 13 nM. In addition, the “ratio of Nav 1.5:Nav 1.7 potency” value in test [2] amounted to 2344.

Take `NC1CCc2cccc(Cn3c(=O)oc4cc(S(=O)(=O)Nc5ncns5)c(F)cc43)c2C1` (single isomer, unassigned) [Compound 23-27, (S or R)-3-[(7-amino-5,6,7,8-tetrahydronaphthalen-1-yl)methyl]-5-fluoro-2-oxo-N-1,2,4-thiadiazol-5-yl-2,3-dihydro-1,3-benzoxazole-6-sulfonamide]: the IC50 in test [1] worked out at 6 nM. For the same compound, the “ratio of Nav 1.5:Nav 1.7 potency” value in test [2] turned out to be 29.

Regarding `O=c1oc2cc(S(=O)(=O)Nc3nccs3)c(F)cc2n1C1CCCc2cccnc21` (stereo not drawn) [Compound 43-4, 5-fluoro-2-oxo-3-(5,6,7,8-tetrahydroquinolin-8-yl)-N-1,3-thiazol-2-yl-2,3-dihydro-1,3-benzoxazole-6-sulfonamide], the IC50 in test [1] was 424 nM. In addition, the “ratio of Nav 1.5:Nav 1.7 potency” value in test [2] is listed as 71.

For the compound `O=c1oc2cc(S(=O)(=O)Nc3ncns3)c(F)cc2n1Cc1cccc2c1C1CC1C=C2` (stereo not drawn) [Compound 11-13, 3-(1a,7b-dihydro-1H-cyclopropa[a]naphthalen-7-ylmethyl)-5-fluoro-2-oxo-N-1,2,4-thiadiazol-5-yl-2,3-dihydro-1,3-benzoxazole-6-sulfonamide], the IC50 in test [1] worked out at 49 nM. In test [2], the “ratio of Nav 1.5:Nav 1.7 potency” value is listed as 50.

As to `O=c1oc2cc(S(=O)(=O)Nc3ncns3)c(F)cc2n1[C@H](CCF)c1ccccc1` [Compound 37-3], in test [1], the IC50 was 132 nM. Further, the “ratio of Nav 1.5:Nav 1.7 potency” value in test [2] came to 39.

Take `Cc1ccc2c(c1)C(n1c(=O)oc3cc(S(=O)(=O)Nc4nccs4)c(F)cc31)CCC2` (stereo not drawn) [Compound 43-7, 5-fluoro-3-(7-methyl-1,2,3,4-tetrahydronaphthalen-1-yl)-2-oxo-N-1,3-thiazol-2-yl-2,3-dihydro-1,3-benzoxazole-6-sulfonamide]: the IC50 in test [1] was 111 nM. In addition, the “ratio of Nav 1.5:Nav 1.7 potency” value in test [2] was found to be 137.

With `CC(c1cccc(-c2cccnc2)c1)n1c(=O)oc2cc(S(=O)(=O)Nc3ncns3)c(F)cc21` (stereo not drawn) [Compound 29-4, 5-fluoro-2-oxo-3-[1-(3-pyridin-3-ylphenyl)ethyl]-N-1,2,4-thiadiazol-5-yl-2,3-dihydro-1,3-benzoxazole-6-sulfonamide], in test [1], the IC50 is 162 nM. Besides, in test [2], the “ratio of Nav 1.5:Nav 1.7 potency” value amounted to 57.

Turning to `O=c1oc2cc(S(=O)(=O)Nc3ncns3)c(F)cc2n1C1COCc2ccccc21` (stereo not drawn) [Compound 39-8, 3-(3,4-dihydro-1H-isochromen-4-yl)-5-fluoro-2-oxo-N-1,2,4-thiadiazol-5-yl-2,3-dihydro-1,3-benzoxazole-6-sulfonamide], the IC50 in test [1] worked out at 204 nM. Besides, the “ratio of Nav 1.5:Nav 1.7 potency” value in test [2] was 29.

With `C[C@H](c1cccc2c1CNCC2)n1c(=O)oc2cc(S(=O)(=O)Nc3nccs3)c(F)cc21` [Compound 43-15, 5-fluoro-2-oxo-3-[(1R)-1-(1,2,3,4-tetrahydroisoquinolin-8-yl)ethyl]-N-1,3-thiazol-2-yl-2,3-dihydro-1,3-benzoxazole-6-sulfonamide], in test [1], the IC50 is 80 nM. The “ratio of Nav 1.5:Nav 1.7 potency” value in test [2] was 147.

As to `C[C@H](c1ccccc1C#CCN)n1c(=O)oc2cc(S(=O)(=O)Nc3nccs3)c(F)cc21` [Compound 43-19, 3-{(1R)-1-[2-(3-aminoprop-1-yn-1-yl)phenyl]ethyl}-5-fluoro-2-oxo-N-1,3-thiazol-2-yl-2,3-dihydro-1,3-benzoxazole-6-sulfonamide], in test [1], the IC50 was 29 nM. Also, the “ratio of Nav 1.5:Nav 1.7 potency” value in test [2] was 1267.

Take `C[C@H](c1cccc2c1CC(NS(C)(=O)=O)CC2)n1c(=O)oc2cc(S(=O)(=O)Nc3ncns3)c(F)cc21` (stereo partly drawn) [Compound 36-7, 5-fluoro-3-[(1R)-1-{7-[(methylsulfonyl)amino]-5,6,7,8-tetrahydronaphthalen-1-yl)ethyl]-2-oxo-N-1,2,4-thiadiazol-5-yl-2,3-dihydro-1,3-benzoxazole-6-sulfonamide]: in test [1], the IC50 worked out at 27 nM. Also, the “ratio of Nav 1.5:Nav 1.7 potency” value in test [2] is 107.

For `C[C@H](c1ccccc1C#CCN)n1c(=O)oc2cc(S(=O)(=O)Nc3ncns3)c(Br)cc21` [Compound 35-6, 3-{(1R)-1-[2-(3-aminoprop-1-yn-1-yl)phenyl]ethyl}-5-bromo-2-oxo-N-1,2,4-thiadiazol-5-yl-2,3-dihydro-1,3-benzoxazole-6-sulfonamide], in test [1], the IC50 is 27 nM. Also, in test [2], the “ratio of Nav 1.5:Nav 1.7 potency” value came to 334.

Take `O=c1oc2cc(S(=O)(=O)Nc3nccs3)c(F)cc2n1C1CCCc2ccc(Cl)nc21` (stereo not drawn) [Compound 43-5, 3-(2-chloro-5,6,7,8-tetrahydroquinolin-8-yl)-5-fluoro-2-oxo-N-1,3-thiazol-2-yl-2,3-dihydro-1,3-benzoxazole-6-sulfonamide]: the IC50 in test [1] is 416 nM. In addition, the “ratio of Nav 1.5:Nav 1.7 potency” value in test [2] came out at 202.

Take `C[C@H](c1ccccc1C#CCC1CCCN1)n1c(=O)oc2cc(S(=O)(=O)Nc3ncns3)c(F)cc21` (stereo partly drawn) [Compound 17-13, 5-fluoro-2-oxo-3-{(1R)-1-[2-(3-pyrrolidin-2-ylprop-1-yn-1-yl)phenyl]ethyl}-N-1,2,4-thiadiazol-5-yl-2,3-dihydro-1,3-benzoxazole-6-sulfonamide]: the IC50 in test [1] was 34 nM. In test [2], the “ratio of Nav 1.5:Nav 1.7 potency” value worked out at 789.

Regarding `C[C@H](c1ccccc1C1CNC1)n1c(=O)oc2cc(S(=O)(=O)Nc3nccs3)c(F)cc21` [Compound 43-21, 3-[(1R)-1-(2-azetidin-3-ylphenyl)ethyl]-5-fluoro-2-oxo-N-1,3-thiazol-2-yl-2,3-dihydro-1,3-benzoxazole-6-sulfonamide], the IC50 in test [1] came out at 18 nM. Moreover, the “ratio of Nav 1.5:Nav 1.7 potency” value in test [2] was 1164.

Consider `O=c1oc2cc(S(=O)(=O)Nc3ncns3)c(F)cc2n1Cc1ccccc1` [Compound 11-7, 3-benzyl-5-fluoro-2-oxo-N-1,2,4-thiadiazol-5-yl-2,3-dihydro-1,3-benzoxazole-6-sulfonamide], for which, in test [1], the IC50 stood at 545 nM. Besides, the “ratio of Nav 1.5:Nav 1.7 potency” value in test [2] was determined as 55.
